{"source": "patent US9982045B2", "about": "“Anti-CDH6 antibody drug conjugates” (Novartis AG, priority 2014, dated 2018)", "key": {"[1]": {"system": "CDH6 expressing cell lines compared to non-expressing cell lines", "test": "In vitro cellular activity on panel of CDH6 expressing and non-expressing cell lines", "conditions": "OVCAR3 and OVCAR8-CDH6+ compared to OVCAR8; FIG. 12"}, "[2]": {"system": "CDH6 expressing primary (patient derived) ovarian tumors", "test": "Patient-derived primary ovarian tumor xenograft mouse model (Example 18)", "assay_type": "in vivo, nude mice", "conditions": "5 mg/kg i.v. Q14D", "protocol": "Mice were enrolled in the study 48 days post implant with a mean tumor volume of 178 mm^3. […] All groups were dosed at 5 mg/kg."}}, "data": [{"substance": "NOV0712: anti-CDH6 human IgG1 from HuCAL PLATINUM phage display; binds CDH6 EC5; sequence in Table 5", "values": [{"measurement": "Cellular activity (inhibition of proliferation)", "setting": "[1]", "result": "No cellular activity was observed"}, {"measurement": "Anti-tumor activity (tumor volume)", "setting": "[2]", "result": "no inhibitory effect upon tumor growth"}]}]}
